Results on 20 compounds are retold here after patent publication US20130217664A1, “NOVEL COMPOUNDS USEFUL FOR THE TREATMENT OF DEGENERATIVE AND INFLAMMATORY DISEASES” (priority 2012, published 2013).

pIC50: −log10 of the molar value. Read-outs that look alike come from different tables or passages of the source.

In one experiment the target is T1, human TYK2 (Homo sapiens, UniProt P29597).
T1 construct: catalytic domain (amino acids 871-1187; catalog number 08-147); purchased Carna Biosciences 08-147
T1 sequence (P29597 871-1187): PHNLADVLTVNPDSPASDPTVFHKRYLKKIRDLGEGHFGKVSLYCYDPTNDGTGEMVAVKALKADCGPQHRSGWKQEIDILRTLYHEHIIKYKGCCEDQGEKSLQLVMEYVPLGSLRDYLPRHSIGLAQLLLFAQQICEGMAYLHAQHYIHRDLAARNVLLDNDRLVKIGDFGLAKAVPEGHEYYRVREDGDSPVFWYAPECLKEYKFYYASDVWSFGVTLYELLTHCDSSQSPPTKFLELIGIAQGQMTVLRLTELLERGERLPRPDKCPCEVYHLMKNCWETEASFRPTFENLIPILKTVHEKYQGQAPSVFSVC
The experiment can be described thus: TYK2 inhibition assay. The conditions noted are these: recombinant human TYK2 catalytic domain, polyGT substrate. The experiment is classed as biochemical. In outline: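 Radiometric kinase reaction run 90 min at 30 °C, stopped with phosphoric acid, washed and scintillation-counted.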

The next experiment concerns the target T2, human JAK3 (Homo sapiens, UniProt P52333).
T2 construct: catalytic domain (amino acids 781-1124; catalog number PV3855); purchased Invitrogen PV3855
Description: JAK3 inhibition assay. In kind it is biochemical. The conditions noted are these: recombinant human JAK3 catalytic domain; polyGT substrate. An outline of the steps: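 Radiometric kinase assay: 0.5 ng JAK3 with 2.5 μg polyGT in Tris pH 7.5/MgCl2 buffer, 1 μM ATP plus 0.25 μCi 33P-γ-ATP, 1% DMSO, 45 min at 30 °C, stopped with phosphoric acid.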

The test system of experiment [1] is pSTAT1(2)-luciferase reporter in HeLa cells triggered with human OSM. The experiment can be described thus: JAK-STAT signalling assay. In kind it is cell-based. The conditions noted are these: read-out: JAK-STAT IC50. An outline of the steps:
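HeLa cells transiently co-transfected with pSTAT1(2)-luciferase and LacZ control reporter, preincubated with compound 60 min, then stimulated with human OSM (33 ng/mL final) overnight at 37 °C. Luciferase read by luminescence; percent inhibition from vehicle and no-trigger controls, EC50 from dose-response.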

In another experiment the target is T3, human JAK1 (Homo sapiens, UniProt P23458).
T3 construct: catalytic domain, amino acids 866-1154; catalog number PV4774; purchased Invitrogen PV4774
The experiment can be described thus: JAK1 inhibition assay (polyGT substrate / Ulight-JAK1 peptide). In kind it is biochemical. The conditions noted are these: recombinant human JAK1 catalytic domain; polyGT or Ulight-JAK1 peptide assay. In outline: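 Two formats. PolyGT radiometric: 45 min at 30 °C, stopped with phosphoric acid, counted as cpm. Ulight-JAK1 peptide: 60 min at room temperature, stopped with Eu-anti-phosphotyrosine/EDTA, read as RFU. Percent inhibition normalised to vehicle and 10 μM staurosporine.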

Where [2] appears, read: Homo sapiens, HeLa, HeLa cells, pSTAT1(2)-luciferase reporter, human OSM 33 ng/mL.
The mark [3] stands for this setting: HeLa cells, pSTAT1(2)-luciferase reporter, human OSM 33 ng/mL.

T2 sequence (P52333 781-1124): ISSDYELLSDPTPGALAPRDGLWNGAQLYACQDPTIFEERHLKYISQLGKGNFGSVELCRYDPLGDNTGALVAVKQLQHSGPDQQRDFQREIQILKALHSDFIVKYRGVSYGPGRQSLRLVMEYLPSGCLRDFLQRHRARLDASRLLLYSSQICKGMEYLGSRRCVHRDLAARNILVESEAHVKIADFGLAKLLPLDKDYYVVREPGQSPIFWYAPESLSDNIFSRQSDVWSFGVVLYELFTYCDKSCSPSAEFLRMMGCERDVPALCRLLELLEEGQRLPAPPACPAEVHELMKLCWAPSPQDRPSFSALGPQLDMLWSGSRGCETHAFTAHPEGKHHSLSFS
T3 sequence (P23458 866-1154): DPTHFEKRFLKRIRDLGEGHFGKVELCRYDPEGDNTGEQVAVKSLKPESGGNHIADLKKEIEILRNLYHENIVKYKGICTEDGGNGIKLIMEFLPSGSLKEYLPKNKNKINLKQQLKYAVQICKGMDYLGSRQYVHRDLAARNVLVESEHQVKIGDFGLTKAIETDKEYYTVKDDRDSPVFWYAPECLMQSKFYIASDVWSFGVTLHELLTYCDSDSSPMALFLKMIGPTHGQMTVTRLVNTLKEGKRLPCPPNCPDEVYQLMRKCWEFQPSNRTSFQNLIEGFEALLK

Take `CCc1cc(C2=CCN(C(=O)N3CCC3)CC2)ccc1N(C)c1cc2c(cn1)ncn2C` [Compound 205, azetidin-1-yl(4-(3-ethyl-4-(methyl(1-methyl-1H-imidazo[4,5-c]pyridin-6-yl)amino)phenyl)-5,6-dihydropyridin-1(2H)-yl)methanone]: the pIC50 (as a rule, the negative decadic logarithm of the IC50, by convention in mol/L) at human TYK2 was 7.00 to 11.00; at human JAK3, 6.30 to 7.00; in experiment [1] (setting [2]), 6.30 to 9.00; at human JAK1 it was 7.00 to 11.00.

Take `CCc1cc(C2=CCN(C(=O)N(C)CC)CC2)ccc1N(C)c1cc2c(cn1)ncn2C` [Compound 206, N-ethyl-4-(3-ethyl-4-(methyl(1-methyl-1H-imidazo[4,5-c]pyridin-6-yl)amino)phenyl)-N-methyl-5,6-dihydropyridine-1(2H)-carboxamide]: the pIC50 at human TYK2 was 7.00 to 11.00; at human JAK3, 6.30 to 7.00; in experiment [1] (setting [2]), less than 6.00; at human JAK1 it was 7.00 to 11.00.

In the case of `CCc1cc(C2=CCN(C(=O)N(C)CC#N)CC2)ccc1N(C)c1cc2c(cn1)ncn2C` [Compound 207, N-(Cyanomethyl)-4-(3-ethyl-4-(methyl(1-methyl-1H-imidazo[4,5-c]pyridin-6-yl)amino)phenyl)-N-methyl-5,6-dihydropyridine-1(2H)-carboxamide], the pIC50 was 7.00 to 11.00 at human TYK2; 6.30 to 7.00 at human JAK3; 6.00 to 6.30 in experiment [1] (Homo sapiens, HeLa); 7.00 to 11.00 on human JAK1.

For the compound `CCc1cc(-c2cnn(Cc3ccc(OC)cc3)c2)ccc1N(C)c1cc2c(cn1)ncn2C` [Compound 208, N-(2-ethyl-4-(1-(4-methoxybenzyl)-1H-pyrazol-4-yl)phenyl)-N,1-dimethyl-1H-imidazo[4,5-c]pyridin-6-amine], the pIC50 on human TYK2 is 7.00 to 11.00; on human JAK3, 6.30 to 7.00; in experiment [1] (setting [2]), 6.30 to 9.00; at human JAK1 it was 7.00 to 11.00.

Take `CCc1cc(-c2cnn(CC#N)c2)ccc1N(C)c1cc2c(cn1)ncn2C` [Compound 209, 2-(4-(3-ethyl-4-(methyl(1-methyl-1H-imidazo[4,5-c]pyridin-6-yl)amino)phenyl)-1H-pyrazol-1-yl)acetonitrile]: the pIC50 at human TYK2 is 6.30 to 7.00; at human JAK3 it was 6.30 to 7.00; in experiment [1] (setting [2]), 6.00 to 6.30; at human JAK1, 7.00 to 11.00.

Regarding `CCc1cc(-c2cnc(NC)nc2)ccc1N(C)c1cc2c(cn1)ncn2C` [Compound 211, N-(2-Ethyl-4-(2-(methylamino)pyrimidin-5-yl)phenyl)-N,1-dimethyl-1H-imidazo[4,5-d]pyridin-6-amine], the pIC50 on human TYK2 is 7.00 to 11.00; on human JAK3, 6.00 to 6.30; in experiment [1] (setting [2]) it was 6.00 to 6.30; at human JAK1, 7.00 to 11.00.

For the compound `CCc1cc(-c2cnc(OC3COC3)nc2)ccc1N(C)c1cc2c(cn1)ncn2C` [Compound 212, N-(2-Ethyl-4-(2-(oxetan-3-yloxy)pyrimidin-5-yl)phenyl)-N,1-dimethyl-1H-imidazo[4,5-c]pyridin-6-amine], the negative-log IC50 (pIC50) at human TYK2 is 6.30 to 7.00; at human JAK3, less than 6.00; in experiment [1] (setting [2]), less than 6.00; on human JAK1, 7.00 to 11.00.

Regarding `CCc1cc(C2=CCN(C(=O)NC3COC3)CC2)ccc1N(C)c1cc2c(cn1)ncn2C` [Compound 215], the pIC50 at human TYK2 is 7.00 to 11.00; on human JAK3, 6.30 to 7.00; in experiment [1] (setting [2]), less than 6.00; at human JAK1, 7.00 to 11.00.

Consider `CCc1cc(C2=CCN(C(=O)OCC#N)CC2)ccc1N(C)c1cc2c(cn1)ncn2C` [Compound 216, Cyanomethyl 4-(3-ethyl-4-(methyl(1-methyl-1H-imidazo[4,5-c]pyridin-6-yl)amino)phenyl)-5,6-dihydropyridine-1(2H)-carboxylate], for which the pIC50 was 7.00 to 11.00 on human TYK2; 6.30 to 7.00 on human JAK3; less than 6.00 in experiment [1] (Homo sapiens, HeLa); 7.00 to 11.00 at human JAK1.

As for `CCc1cc(-c2cnc(OCC#N)nc2)ccc1N(C)c1cc2c(cn1)ncn2C` [Compound 217, 2-(5-(3-ethyl-4-(methyl(1-methyl-1H-imidazo[4,5-c]pyridin-6-yl)amino)phenyl)pyrimidin-2-yloxy)acetonitrile], the pIC50 on human TYK2 is 6.30 to 7.00; on human JAK3, less than 6.00; in experiment [1] (setting [2]) it was less than 6.00; at human JAK1 it was 7.00 to 11.00.

Turning to `CCc1cc(-c2cncc(S(C)(=O)=O)c2)ccc1N(C)c1cc2c(cn1)ncn2C` [Compound 218, N-(2-ethyl-4-(5-(methylsulfonyl)pyridin-3-yl)phenyl)-N,1-dimethyl-1H-imidazo[4,5-c]pyridin-6-amine], the pIC50 is 6.00 to 6.30 at human TYK2, less than 6.00 at human JAK3, less than 6.00 in experiment [1] (setting [2]) and 7.00 to 11.00 on human JAK1.

As for `CCc1cc(-c2cnn(CCN3CCCC3)c2)ccc1N(C)c1cc2c(cn1)ncn2C` [Compound 219, N-(2-ethyl-4-(1-(2-(pyrrolidin-1-yl)ethyl)-1H-pyrazol-4-yl)phenyl)-N,1-dimethyl-1H-imidazo[4,5-c]pyridin-6-amine], the pIC50 at human TYK2 is 7.00 to 11.00; on human JAK3, less than 6.00; in experiment [1] (setting [2]), 6.30 to 9.00; at human JAK1 it was 7.00 to 11.00.

Consider `CCc1cc(-c2cnn(CC(=O)N(C)C)c2)ccc1N(C)c1cc2c(cn1)ncn2C` [Compound 220, 2-(4-(3-ethyl-4-(methyl(1-methyl-1H-imidazo[4,5-c]pyridin-6-yl)amino)phenyl)-1H-pyrazol-1-yl)-N,N-dimethylacetamide], for which the pIC50 at human TYK2 is 7.00 to 11.00; on human JAK3 it was 6.30 to 7.00; in experiment [1] (setting [2]), 6.00 to 6.30; at human JAK1, 7.00 to 11.00.

Regarding `CCc1cc(-c2cnn(CC(=O)C(C)(C)C)c2)ccc1N(C)c1cc2c(cn1)ncn2C` [Compound 221, 1-(4-(3-ethyl-4-(methyl(1-methyl-1H-imidazo[4,5-c]pyridin-6-yl)amino)phenyl)-1H-pyrazol-1-yl)-3,3-dimethylbutan-2-one], the pIC50 on human TYK2 is 6.30 to 7.00; at human JAK3 it was less than 6.00; in experiment [1] (setting [2]), less than 6.00; at human JAK1 it was 7.00 to 11.00.

Take `CCc1cc(-c2cnn(CC(N)=O)c2)ccc1N(C)c1cc2c(cn1)ncn2C` [Compound 222, 2-(4-(3-Ethyl-4-(methyl(1-methyl-1H-imidazo[4,5-c]pyridin-6-yl)amino)phenyl)-1H-pyrazol-1-yl)acetamide]: the pIC50 on human TYK2 is 7.00 to 11.00; at human JAK3, 6.30 to 7.00; in experiment [1] (setting [2]), 6.30 to 9.00; on human JAK1, 7.00 to 11.00.

On to `CCC(=O)N1CCC(c2ccc(N(C)c3cc4c(cn3)ncn4C)c(CC)c2)CC1` [Compound 223, 1-(4-(3-ethyl-4-(methyl(1-methyl-1H-imidazo[4,5-c]pyridin-6-yl)amino)phenyl)piperidin-1-yl)propan-1-one], for which the pIC50 is 7.00 to 11.00 at human TYK2, 6.30 to 7.00 on human JAK3, 6.30 to 9.00 in experiment [1] (setting [3]) and 7.00 to 11.00 at human JAK1.

Consider `CCc1cc(C2CCN(C(=O)CC#N)CC2)ccc1N(C)c1cc2c(cn1)ncn2C` [Compound 224, 3-(4-(3-ethyl-4-(methyl(1-methyl-1H-imidazo[4,5-c]pyridin-6-yl)amino)phenyl)piperidin-1-yl)-3-oxopropanenitrile], for which the pIC50 was 7.00 to 11.00 at human TYK2, 6.30 to 7.00 at human JAK3, 6.00 to 6.30 in experiment [1] (setting [3]) and 7.00 to 11.00 at human JAK1.

On to `CCc1cc(C2CCN(C(=O)COC)CC2)ccc1N(C)c1cc2c(cn1)ncn2C` [Compound 226, 1-(4-(3-ethyl-4-(methyl(1-methyl-1H-imidazo[4,5-c]pyridin-6-yl)amino)phenyl)piperidin-1-yl)-2-methoxyethanone], for which the pIC50 at human TYK2 was 7.00 to 11.00; on human JAK3, 6.30 to 7.00; in experiment [1] (setting [3]), less than 6.00; on human JAK1, 7.00 to 11.00.

With `CCc1cc(C2=CCN(C(=O)C(O)C(F)(F)F)CC2)ccc1N(C)c1cc2c(cn1)ncn2C` (centres unmarked) [Compound 230, 1-(4-(3-ethyl-4-(methyl(1-methyl-1H-imidazo[4,5-c]pyridin-6-yl)amino)phenyl)-5,6-dihydropyridin-1(2H)-yl)-3,3,3-trifluoro-2-hydroxypropan-1-one], the negative-log IC50 (pIC50) was 7.00 to 11.00 at human TYK2, 7.00 to 11.00 on human JAK3, 6.30 to 9.00 in experiment [1] (setting [2]) and 7.00 to 11.00 at human JAK1.

For the compound `CCc1cc(C2=CCN(C(=O)C(C)(C)O)CC2)ccc1N(C)c1cc2c(cn1)ncn2C` [Compound 231, 1-(4-(3-ethyl-4-(methyl(1-methyl-1H-imidazo[4,5-c]pyridin-6-yl)amino)phenyl)-5,6-dihydropyridin-1(2H)-yl)-2-hydroxy-2-methylpropan-1-one], the pIC50 on human TYK2 is 7.00 to 11.00; at human JAK3 it was 6.30 to 7.00; in experiment [1] (setting [2]), 6.30 to 9.00; on human JAK1, 7.00 to 11.00.
